Reference: patent publication US20240391940A1, “FUSED RING-CONTAINING COMPOUND, APPLICATION THEREOF, AND COMPOSITION CONTAINING SAME” (GenEros Biopharma Ltd., priority 2020, published 2024)

Columns and labels:
female BALB/c mice = assay: Toxicity, multiple administrations for 14 days in mice; format: in vivo; set-up: Changes in body weight of the mice in the toxicity test (group mean) / Changes in body weight of the mice in the toxicity test: unit not given here
Procedure: • Part I: Single administration. A total of 6 mice were used. They were randomly divided into 2 groups: the vehicle control and GEN1-284s (1000 mg/kg), dosed once by oral gavage and observed for 6 days, and changes in body weight and activities were recorded. • Part II: Multiple administrations. This experiment used a total of 6 mice. They were divided into two groups of 3: a GEN1-284s-1000 mg/kg group and a GEN1-284s-300 mg/kg group, and were intragastrically given GEN1-284s for 14 consecutive days at 200 μL each. The state and survival of the mice were observed every day, and their body weights were recorded. Two mice died 2 h after GEN1-284s-1000 mg/kg administration. The dose was changed to 600 mg/kg, and the experiment was continued.
This experiment used a total of 6 mice. They were divided into two groups of 3: a GEN1-284s-1000 mg/kg group and a GEN1-284s-300 mg/kg group, and were intragastrically given GEN1-284s for 14 consecutive days at 200 μL each. The state and survival of the mice were observed every day, and their body weights were recorded. Two mice died 2 h after GEN1-284s-1000 mg/kg administration. The dose was changed to 600 mg/kg, and the experiment was continued.
Each mouse was intragastrically administered GEN1-284s for 14 consecutive days in a volume of 200 μL/20 g. The state and survival of the mice were observed every day, and their body weights were recorded. Two mice died 2 h after GEN1-284s-1000 mg/kg administration. The dose was changed to 600 mg/kg, and the experiment was continued.
Changes in body weight and survival of the mice were observed during 6 days after the single administration, and changes in body weight and the survival of the mice were observed during 14 consecutive days of high-dose GEN1-284s administration.

[1] = system: STAT5 Y694 phosphorylation; assay: HTRF experiment: STAT5 Y694 phosphorylation in Hela cells; format: cell-based, Human; details: for Inhibition rate @10 μM: 10 μM compound, 2 h pretreatment, interferon stimulation 30 min
Procedure: A multifunctional microplate reader (TECAN; […] F PLEX); 96-well cell culture plates (Bioyong), HTRF 384-well low volume plates (Cisbio; Cat #66PL384025); Human interferon 0 (IFN-0) (GenScript; Cat #P01574), STAT5 phospho-Y694 kits (Cisbio; Cat #64AT5PEG).
Hela cells (American Type Culture Collection (ATCC), CCL-2) were cultured in a 96-well plate with DMEM containing 5% fetal bovine serum at a density of 3×10^4 cells/well. The cells were incubated overnight in a 37° C., 5% carbon dioxide humidified incubator. The next day, the original DMEM in the 96-well plate was blotted, and equal volumes of medium containing different concentrations of compounds (stock solutions of compounds prepared with dimethyl sulfoxide were diluted to desired concentrations in medium) were added for 2 h of pretreatment. The plate was left to stand in a 37° C. incubator. Human interferon 0 was then added to a final concentration of 10 nM for stimulation. The plate was gently shaken so the contents were well mixed, and the plate was then left to stand in a 37° C. incubator for 30 min.
The medium was removed, and the plate was washed once with an appropriate volume of PBS and then blotted dry. Then 1×lysis buffer was added at 40 μL/well, and the plate was left to stand at room temperature for 30 min (preparation of 1 mL of 1× lysis buffer: mixing well 740 μL of ddH2O with 250 μL of 4× lysis buffer and […]). After 30 min, the cells were repeatedly pipetted until the lysis buffer was not viscous (bubbles were avoided) so that sufficient lysis was achieved.
In an HTRF 384-well low volume plate, 4 μL of an antibody premix (containing two antibodies: Cryptate and d2: the two antibodies were each 20-fold diluted with detection buffer and were then mixed in equal volume to form the antibody premix) and 16 μL of the cell lysate were added to each well. The plate was sealed with a sealing membrane and then incubated overnight at room temperature in a dark place.
After the overnight incubation, signals at 665 nm and 620 nm were detected separately on a multifunctional microplate reader. The calculation formula for the STAT5 Y694 phosphorylation assay is: Ratio=[(signal 665 nm)/(signal 620 nm)]×10^4. A dimethyl sulfoxide-only treatment group was set as a negative control (RatioNegative), and an interferon 0 stimulation group without compound addition was set as a positive control (RatioPositive). The inhibition rates of different samples against STAT5 Y694 phosphorylation were normalized: inhibition rate=[1−(RatioExperiment−RatioNegative)/(RatioPositive−RatioNegative)]×100.

O=C(Cc1ccc2ncccc2c1)N1CCC(n2c(=O)n(COP(=O)([O-])[O-])c3cccc(C(F)(F)F)c32)CC1.[Na+].[Na+] [Compound 284s]
Changes in body weight of the mice in the toxicity test (group mean) (female BALB/c mice; 300 mg/kg P.O daily, Day 1): 16.97 | Changes in body weight of the mice in the toxicity test (group mean) (female BALB/c mice; 300 mg/kg P.O daily, Day 2): 16.93 | Changes in body weight of the mice in the toxicity test (group mean) (female BALB/c mice; 300 mg/kg P.O daily, Day 3): 16.87 | Changes in body weight of the mice in the toxicity test (group mean) (female BALB/c mice; 300 mg/kg P.O daily, Day 4): 17.17 | Changes in body weight of the mice in the toxicity test (group mean) (female BALB/c mice; 300 mg/kg P.O daily, Day 5): 17.17 | Changes in body weight of the mice in the toxicity test (group mean) (female BALB/c mice; 300 mg/kg P.O daily, Day 6): 17.23 | Changes in body weight of the mice in the toxicity test (group mean) (female BALB/c mice; 300 mg/kg P.O daily, Day 8): 17.47 | Changes in body weight of the mice in the toxicity test (group mean) (female BALB/c mice; 300 mg/kg P.O daily, Day 9): 17.17 | Changes in body weight of the mice in the toxicity test (group mean) (female BALB/c mice; 300 mg/kg P.O daily, Day 10): 17.1 | Changes in body weight of the mice in the toxicity test (group mean) (female BALB/c mice; 300 mg/kg P.O daily, Day 11): 17.3 | Changes in body weight of the mice in the toxicity test (group mean) (female BALB/c mice; 300 mg/kg P.O daily, Day 12): 17.23 | Changes in body weight of the mice in the toxicity test (group mean) (female BALB/c mice; 300 mg/kg P.O daily, Day 13): 17.47 | Changes in body weight of the mice in the toxicity test (group mean) (female BALB/c mice; 300 mg/kg P.O daily, Day 14): 17.47 | Changes in body weight of the mice in the toxicity test (group mean) (female BALB/c mice; 600 mg/kg group (1000 mg/kg, changed to 600 mg/kg on day 2) P.O daily, Day 1): 17.37 | Changes in body weight of the mice in the toxicity test (female BALB/c mice; 600 mg/kg group (1000 mg/kg, changed to 600 mg/kg on day 2) P.O daily, Day 2): 16.9 | Changes in body weight of the mice in the toxicity test (female BALB/c mice; 600 mg/kg group (1000 mg/kg, changed to 600 mg/kg on day 2) P.O daily, Day 3): 17.3 | Changes in body weight of the mice in the toxicity test (female BALB/c mice; 600 mg/kg group (1000 mg/kg, changed to 600 mg/kg on day 2) P.O daily, Day 4): 17.3

O=C(Cc1ccc2[nH]ccc2c1)N1CCC(n2c(=O)[nH]c3ccccc32)CC1 [GEN1-077, 3-[1-[2-(1H-Indol-5-yl)acetyl]-4-piperidinyl]-1H-benzimidazol-2-one]
Inhibition rate @10 μM [1]: 34.25%

CN(C)c1ccc(CC(=O)N2CCC(n3c(=O)[nH]c4cccc(C(F)(F)F)c43)CC2)cc1 [GEN1-118, 1-(1-(2-(4-(Dimethylamino)phenyl)acetyl)piperidin-4-yl)-7-(trifluoromethyl)-1,3-dihydro-2H-benzo[d]imidazol-2-one]
Inhibition rate @10 μM [1]: 27.57%

O=C(Cc1ccc2nccnc2c1)N1CCC(n2c(=O)[nH]c3cccc(C(F)(F)F)c32)CC1 [GEN1-140, 1-(1-(2-(Quinoxalin-6-yl)acetyl)piperidin-4-yl)-7-(trifluoromethyl)-1,3-dihydro-2H-benzo[d]imidazol-2-one]
Inhibition rate @10 μM [1]: 53.79%

O=C(Cc1c[nH]c2ccccc12)N1CCC(n2c(=O)[nH]c3cccc(C(F)(F)F)c32)CC1 [GEN1-169, reference compound]
Inhibition rate @10 μM [1]: 13.47%

O=C(Cc1ccc2ncccc2c1)N1CCC(n2c(=O)n(COP(=O)(O)O)c3cccc(C(F)(F)F)c32)CC1 [GEN1-284, (2-Oxo-3-(1-(2-(quinolin-6-yl)acetyl)piperidin-4-yl)-4-(trifluoromethyl)-2,3-dihydro-1H-benzo[d]imidazol-1-yl)methyl dihydrogen phosphate]
IC50 [1]: 3.9 µM | Inhibition rate @10 μM [1]: 80.21%

O=C(Cc1ccc2sccc2c1)N1CCC(n2c(=O)[nH]c3cccc(C(F)(F)F)c32)CC1 [GEN1-298, 1-(1-(2-(Benzo[b]thiophen-5-yl)acetyl)piperidin-4-yl)-7-(trifluoromethyl)-1,3-dihydro-2H-benzo[d]imidazol-2-one]
Inhibition rate @10 μM [1]: 51.98%

Cc1ccc2cc(CC(=O)N3CCC(n4c(=O)[nH]c5cccc(C(F)(F)F)c54)CC3)ccc2n1 [GEN1-300]
IC50 [1]: 7.6 µM | Inhibition rate @10 μM [1]: 72.83%

O=C(Cc1ccc2nccc(Cl)c2c1)N1CCC(n2c(=O)[nH]c3cccc(C(F)(F)F)c32)CC1 [GEN1-301, 1-(1-(2-(4-Chloroquinolin-6-yl)acetyl)piperidin-4-yl)-7-(trifluoromethyl)-1,3-dihydro-2H-benzo[d]imidazol-2-one]
IC50 [1]: 8.8 µM | Inhibition rate @10 μM [1]: 80.70%

O=C(Cc1ccc2nc(Cl)ccc2c1)N1CCC(n2c(=O)[nH]c3cccc(C(F)(F)F)c32)CC1 [GEN1-302, 1-(1-(2-(2-Chloroquinolin-6-yl)acetyl)piperidin-4-yl)-7-(trifluoromethyl)-1,3-dihydro-2H-benzo[d]imidazol-2-one]
IC50 [1]: 7 µM | Inhibition rate @10 μM [1]: 80.37%

Cc1cc(CC(=O)N2CCC(n3c(=O)[nH]c4cccc(C(F)(F)F)c43)CC2)cc2cccnc12 [GEN1-303, 1-(1-(2-(8-Methylquinolin-6-yl)acetyl)piperidin-4-yl)-7-(trifluoromethyl)-1,3-dihydro-2H-benzo[d]imidazol-2-one]
IC50 [1]: 5.5 µM | Inhibition rate @10 μM [1]: 91.91%
